Our source for the melting point values is a melting point compilation (Tetko et al.; mined from patent text by program, amines drawn as free bases though some values may be those of a salt).

Usually melting point stands for the temperature, or range, at which the solid turns liquid. For the compound `Cc1cc(-c2ccccc2)c(=O)n2c1-c1sccc1CC2`, the melting point is 80.5 to 81 °C.
As for `O=C(O)CCCCN1CCN2c3ccccc3Sc3ccccc3C2C1` (configuration not stated), the figure is 226 to 230 °C; as for `CCCCc1nc(C(=O)CCC)c(C#N)[nH]1`, 91 to 92 °C; as for `CCSc1scnc1C(=O)O`, 158 to 159 °C.
As for `COc1cc(OC)c(C2=CCN(C)CC2)c(OC)c1`, the figure is 112 to 114 °C.
As for `CC(O)CC#Cc1ccc(C(CC2CCCC2)C(=O)O)cc1` (configuration not stated), the figure is 73 to 76 °C; as for `CCCCc1nc2c(N)nc3ccccc3c2n1CCCCC(N)=O`, 219 to 221 °C; as for `CCOC(=O)c1oc2cccc(OCC(C)O)c2c1C` (configuration not stated), 94 to 96 °C.
For `Cc1ccc(NC(=O)c2c(Cl)cccc2Cl)c2nccc(-n3ccnc3)c12`, the melting point came to 236 °C.
As for `CC(S)Cn1c(=O)[nH]c2ccccc2c1=O` (configuration not stated), the figure is 206 to 208 °C; as for `Nc1ncc2cc(-c3c(Cl)cccc3Cl)c(=O)n(Cc3cccc(Br)c3)c2n1`, 215 °C.
As for `COc1ccc(N(CCCC(O)CO)S(=O)(=O)c2c(F)c(F)c(F)c(F)c2F)cc1` (configuration not stated), the figure is 116 to 118 °C; as for `COc1cc(F)ccc1-c1ccc(S(=O)(=O)N2c3ccccc3CC2C(=O)NCCOc2ccc(C(=O)O)cc2)cc1` (configuration not stated), 102 °C; as for `O=C(N[C@@H](Cc1ccc(-c2c(O)cccc2O)cc1)C(=O)O)c1c(Cl)cccc1Cl`, 238 °C.
As for `Cc1ccc(CNCC2(F)CCN(C(=O)c3ccc(F)c(F)c3)CC2)nc1`, the figure is 158 °C; as for `CC1=C(c2ccncc2)CCC(=O)N1`, 175 to 177 °C.
Compound `COc1ccc(S(=O)(=O)C2(CCCCCCCCCC#Cc3ccc(Cl)cc3)SC(=O)NC2=O)cc1` (configuration not stated) came in with a melting point of 114 to 121 °C.
As for `COC(=O)Cn1c(SCc2nccc(SCCN3CCOCC3)c2C)nc2ccccc21`, the figure is 128 to 129 °C; as for `CC1(C(Cl)(Cl)Cl)C=CC(=O)C=C1`, 103 °C; as for `O=C1CCN(C(=O)c2ccc3nonc3c2)CC1`, 136 to 139 °C.
As for `CCCC(C(=O)OCC)N1CC(COc2cccc(Cl)c2)OC1=O` (configuration not stated), the figure is 43 to 49 °C; as for `COc1ccc(Cc2n[nH]c3c2c(=O)n(-c2ccccc2)c2ncccc32)cc1OC`, 230 to 232 °C.
As for `CS(=O)(=O)c1ccc(-c2cnn(CC=Cc3ccccc3)c(=O)c2-c2ccc(F)cc2)cc1`, the figure is 165 to 167 °C; as for `O=C(CN1CCC(Cc2ccccc2)CC1)Nc1ccc2c(c1)CC(=O)N2`, 166 to 170 °C; as for `CCOC(=O)C1=C(CCl)NC(C)=C(C(=O)OC)C1c1cccc([N+](=O)[O-])c1` (configuration not stated), 119 to 120 °C.
For the compound `CCc1c(F)c(F)c(F)c2c1c(=O)c(C(=O)O)cn2C1CC1`, the melting point lay within 197 to 198 °C.
Take `CN(C)c1ccc(S(=O)c2ccccc2)cc1[N+](=O)[O-]` (configuration not stated): the melting point was in the range of 125 to 126 °C.
Regarding `COc1cccc([C@H]2O[C@H](CC(=O)Nc3ccc4[nH]c(C(=O)O)cc4c3)C(=O)N(CC(C)(C)CO)c3ccc(Cl)cc32)c1OC`, the melting point is 200 to 201 °C.
As for `COc1ccc(CC2c3cc(O)c(OC)cc3CCN2CC2CC2)cc1O` (single isomer, unassigned; (+)), the figure is 70 to 81 °C.
As for `CC(C)=CCN1CCc2c(sc(N)c2C(=O)c2ccc(Br)cc2)C1`, the figure is 73 to 75 °C; as for `CCCCCCCCCCCCCCc1ccc(S(=O)(=O)Cl)cc1`, 32 to 33 °C; as for `C=C(Cl)Cc1cc2c(C)cc(=O)oc2c(C)c1O`, 135 to 163 °C.
As for `CCOC(=O)c1cc(=O)c2c(OCC(O)COc3cccc(C)c3)cccc2o1` (configuration not stated), the figure is 72 to 74 °C.
The compound `Nc1c(Br)cc2c3c(cccc13)C(=O)N(O)C2=O` registered a melting point of 318 to 324 °C.
With `CC/C(=C\C=C\C(=O)O)c1ccc(OC)cc1`, the melting point was in the range of 136 to 137 °C.
The compound `CCCCCCCCCCOc1ccc(C(=O)C=O)cc1` had a melting point of 81 to 83 °C.
As for `CC(O)=C(C(=O)OC(c1ccccc1)c1ccccc1)N1C(=O)C(NC(=O)C(NC(=O)OC(C)(C)C)c2ccccc2)C1SS(=O)(=O)c1ccc(C)cc1` (configuration not stated), the figure is 182 to 184 °C; as for `NC1SC2=CC=CC2=C1C(=O)c1ccc(Br)cc1` (configuration not stated), 205 to 206 °C.
As for `FC(F)(F)c1ccc(CN2CC3(COc4cc5c(cc43)CCO5)c3c(Br)cccc32)o1` (configuration not stated), the figure is 182 to 184 °C.
As for `COc1cc2c3c(c1)c(=O)c(Cc1cccnc1)cn3-c1ccc(Br)cc1S2`, the figure is 157 to 159 °C.
In the case of `CCOC(=O)c1c(C(F)F)nc(C(F)(F)F)c(C(=O)OCC)c1C1CC1`, the melting point lay in the range of 30 to 32 °C.
As for `N#CC1=C(C#N)NC(c2ccccc2)C(O)=N1` (configuration not stated), the figure is 222 to 224 °C; as for `O=C(NC/C=C\COc1cc(CN2CCCCC2)ccn1)c1csnn1`, 70 to 72 °C.
As for `O=c1[nH]c2ncc(-c3ccc(-c4nc[nH]n4)cc3)nc2n1CC1CCCCC1`, the figure is 336 to 338 °C; as for `Fc1cc(-c2cc(C(F)(F)F)n3ncc(-c4ccncc4)c3n2)ccc1C(F)(F)F`, 262 °C.
As for `CCN1C(=O)C(C)(C)CCc2c1ccc(Nc1ncc(Cl)c(Nc3ccc(N4CCOCC4)cc3OC)n1)c2OC`, the figure is 181 to 183 °C; as for `CNC(=S)NCCCCC(NC(=O)C(Cc1cccc2ccccc12)Cc1cccc2ccccc12)C(=O)NC(CC(C)C)C(O)C(=O)OC(C)C` (configuration not stated), 93 to 95 °C.
As for `COc1cc(-c2ncc(C(F)(F)F)cc2F)c(F)cc1Cl`, the melting point lay within 79 to 80 °C.
As for `CCOC(=O)c1nnn(-c2ccccc2)c1Cl`, the figure is 80 to 81 °C; as for `Cc1nnc2n1N=C(c1ccc3c(c1)NC(=O)CO3)C(C)(C)S2`, 249 to 250 °C; as for `Nc1nc(NC2CC2)c2sc(=O)n(C3OC(CO)C(O)C3O)c2n1` (configuration not stated), > 100 °C.
As for `COC(=O)c1ccc2cc(OC)ccc2n1`, the figure is 129 °C; as for `CCN(CC)CCOC1CCC2C3CCc4cc(OC)ccc4C3CCC12CC` (configuration not stated), 66 to 67 °C.
As for `CCOC(=O)c1cc([N+](=O)[O-])c(C(=O)O)cc1C(=O)O`, the figure is 189 to 191 °C.
The compound `CS(=O)(=O)c1ccc(-c2oc(C(=O)O)cc(=O)c2-c2ccc(Cl)cc2)cc1` gave a melting point of 236 °C.
As for `CCCCCCC1CC(Cn2cncn2)(c2ccccc2)N(C)O1` (configuration not stated), the figure is 93 to 99 °C; as for `BrCCOc1ccc(Cn2cccn2)cc1`, 63 to 65 °C; as for `CCOC(=O)C1C(c2ccc(I)cc2)CC(=O)N1C` (configuration not stated), 120 to 121 °C.
As for `N=C(Nc1ccccc1-c1cccc(F)c1)N1CCC(O)CC1`, the figure is 147 to 148 °C; as for `CCn1c(=O)c2c(nc(/C=C/c3ccc(OC)c(C)c3OC)n2C)n(CC)c1=O`, 196 to 197 °C.
As for `Nc1nccc(-c2ccccc2OCC(O)CN2CCN(c3ccc(Cl)cc3)CC2)n1` (configuration not stated), the figure is 159 to 160 °C; as for `O=c1cc(CO)oc2cc(O)ccc12`, 250 to 252 °C; as for `O=c1[nH]c2ccccc2cc1CN1CCN(c2ccc(Cl)cc2)CC1`, 256 to 259 °C.
On to `CNC(=O)c1ccc(Nc2nc(Nc3cc4c(cc3OC)CCN(Cc3ncco3)CC4)ncc2Cl)c(OC)c1`, for which the melting point is 85 to 96 °C.
As for `CCCc1ccc(C2c3c(C)c(N)c(C)c(C)c3OC2(C)C)cc1` (configuration not stated), the figure is 68 to 69 °C; as for `CCOc1c(CN2CCCCC2)c2c(c3c1OC(C)(C)C3)C(c1cccc(N(S(C)(=O)=O)S(C)(=O)=O)c1)=NC(C)(C)C2`, 118 to 119 °C.
Turning to `Cc1nc(-n2cnn(CC3CC3)c2=O)sc1C(=O)NCc1cccnc1`, the melting point fell in the range of 116 to 117 °C.
As for `O=C1C(O)=C(c2ccc3ccccc3c2)C(=O)C(O)=C1c1ccc2ccccc2c1`, the figure is 328 to 329 °C.
The compound `O=C(Nc1noc2ccccc12)N1CCN(c2nc(-c3ccccc3)no2)CC1` displayed a melting point of 215 to 216 °C.
The compound `CCC(=O)Oc1cccc(NC(=O)CBr)c1` had a melting point of 85 to 88 °C.
As for `CCCc1nc(CO)c(C(=O)OCC)n1Cc1ccc(-c2ccccc2-c2nnnn2C(c2ccccc2)(c2ccccc2)c2ccccc2)cc1`, the figure is 135 to 138 °C; as for `COC(=O)c1n[nH]c(=O)c2ccc(Cl)cc12`, 222 to 223 °C; as for `Cc1c(C)c2c(c(C)c1NC(=O)CC(C)(C)C)C(c1ccc(C(C)(C)O)cc1)CO2` (configuration not stated), 132 to 134 °C.
As for `N#Cc1cc(C2=Nc3cc(O)c(-c4ccccc4F)cc3NC(=O)C2)ccn1`, the figure is > 250 °C.
As for `O=C(O)CSc1c(Cl)cc2c(-c3ccccc3F)noc2c1Cl`, the figure is 165 °C; as for `Cc1oc(-c2ccccc2)nc1/C=C/c1ccc(/C=C/CO)cc1`, 165 to 166 °C.
Turning to `O=C(O)Cc1cc(C(=O)c2cccc(Cl)c2)ccc1O`, the melting point came to 186 °C.
As for `CCCCCCCCCCCCOc1cccc2c(OCC(O)CO)cccc12` (configuration not stated), the figure is 143 to 144 °C; as for `CCN(CC)C(=O)c1ccc(Cl)c(C2(C)C(=O)N(Cc3ccc(OC)cc3OC)c3ccccc32)c1` (configuration not stated), 172 °C.
Consider `COCc1ccc(N2CCN(Cc3c[nH]c4ncccc34)CC2)cc1`, for which the melting point was in the range of 162 to 163 °C.
As for `FC(F)(F)c1cc(Cc2ccc(Cl)c(C(F)(F)F)c2)ccc1Cl`, the figure is 98 to 101 °C.
`COCc1ccc([C@H]2CC[C@H]([C@H]3CC[C@H](C=O)CC3)CC2)cc1F` registered a melting point of 52 to 54 °C.
Consider `O=C(O)C1COc2cc(Cl)c(Cl)cc2O1` (configuration not stated), for which the melting point lay in the range of 155 to 158 °C.
As for `COc1cccc(-c2ccccc2C(=O)Nc2ccc(Cl)cc2)c1`, the figure is 123 to 124 °C.
As for `CC(C)(C)N(O)C(=O)C1CCC(C2CCCCC2)CC1` (configuration not stated), the figure is 119 to 120 °C; as for `COc1ccc(OC)c2[nH]c(-c3ccc(Cl)cc3)nc12`, 274 to 276 °C.
As for `Cc1cc(C(=O)Nc2nc(-c3ccoc3)c(C(=O)C3CCOCC3)s2)ccn1`, the figure is 202 to 204 °C.
